Assay results published in EPA's ToxRefDB 2.

Columns and labels:
mouse [1] = details: Subchronic oral toxicity in rodents, cd1, Feed, dose end: 13 week, group: systemic
rat [2] = details: Multigenerational reproductive toxicity study, sprague dawley, Oral, Feed, dose end: 2 generation
mouse [3] = details: Combined chronic toxicity/carcinogenicity, cd1, Oral, Feed, dose end: 104 week, group: systemic
rat [4] = details: Prenatal developmental toxicity study, sprague dawley, Oral, Gavage/Intubation, dose end: 15 GD
rat [5] = details: Subchronic oral toxicity in rodents, other, Feed, dose end: 13 week
rat [6] = details: Subchronic oral toxicity in rodents, sprague-dawley, Feed, dose end: 13 week, group: systemic
rat [7] = details: Combined chronic toxicity/carcinogenicity, other, Oral, Gavage/Intubation, dose end: 104 week, group: systemic
rabbit = details: Prenatal developmental toxicity study, new zealand white, Oral, Gavage/Intubation, dose end: 18 GD
rat [8] = details: Subchronic oral toxicity in rodents, sprague dawley, Feed, dose end: 90 day, group: systemic
hamster = details: Chronic toxicity, Oral, Feed, dose end: 24 month, group: systemic
[9] = systemic / organ weight / liver / relative to body weight
[10] = group: offspring, systemic / in life observation / clinical signs / tremors + systemic / in life observation / body weight / litter weight + systemic / in …
[11] = group: offspring, systemic / in life observation / clinical signs / tremors + systemic / pathology gross / skin / ulcer
[12] = group: parental, systemic / pathology gross / skin / ulcer
[13] = systemic / pathology gross / skin / lesion(s) (nos) + systemic / pathology microscopic / skin / inflammation
[14] = group: developmental, developmental / developmental malformation / bone / absent + developmental / developmental malformation / bone / delayed ossification + …
[15] = group: maternal, systemic / in life observation / body weight / body weight gain
[16] = group: maternal, systemic / in life observation / body weight / body weight gain + systemic / in life observation / clinical signs / blood around eyes and …
[17] = group: cholinesterase, cholinesterase / cholinesterase / cholinesterase / erythrocyte cholinesterase (che)
[18] = group: systemic, systemic / hematology / erythrocyte (rbc) count differential / erythrocyte (rbc) + systemic / hematology / hematocrit (hct) / hematocrit (…
[19] = systemic / organ weight / heart / relative to body weight
[20] = systemic / in life observation / body weight / body weight + systemic / in life observation / water consumption / water consumption + …
[21] = systemic / pathology microscopic / mammary gland / fibroadenoma
[22] = group: developmental, developmental / developmental malformation / bone / short
[23] = group: developmental, developmental / developmental malformation / bone / short + developmental / developmental malformation / bone / [other]
[24] = group: maternal, reproductive / offspring survival early / offspring survival early other / NOS + reproductive / reproductive performance / resorptions / …
[25] = systemic / in life observation / body weight / body weight gain + systemic / organ weight / heart / relative to body weight
[26] = systemic / in life observation / mortality / mortality + systemic / pathology microscopic / kidney / inflammation
[27] = systemic / in life observation / mortality / mortality + systemic / pathology microscopic / kidney / inflammation + systemic / pathology …

CC(C)C(Nc1ccc(C(F)(F)F)cc1Cl)C(=O)OC(C#N)c1cccc(Oc2ccccc2)c1 (stereo unspecified) [Fluvalinate]
LEL (mouse [1]; [9]): 1 mg/kg/day | NEL (mouse [1]; [9]): < 1 mg/kg/day | NOAEL (mouse [1]; systemic / pathology gross / skin / lesion(s) (nos) + systemic / hematology / erythrocyte (rbc) count differential / erythrocyte (rbc) + …): 3 mg/kg/day | LOAEL (mouse [1]; systemic / pathology gross / skin / lesion(s) (nos) + systemic / in life observation / body weight / body weight): 30 mg/kg/day | LEL (rat [2]; [10]): 9.53 mg/kg/day | LOAEL (rat [2]; [10]): 9.53 mg/kg/day | NEL (rat [2]; [11]): 1.9 mg/kg/day | NOAEL (rat [2]; [11]): 1.9 mg/kg/day | LEL (rat [2]; [12]): 9.53 mg/kg/day | LOAEL (rat [2]; [12]): 9.53 mg/kg/day | NEL (rat [2]; [12]): 1.9 mg/kg/day | NOAEL (rat [2]; [12]): 1.9 mg/kg/day | LEL (mouse [3]; [13]): 10 mg/kg/day | NEL (mouse [3]; [13]): 2 mg/kg/day | LOAEL (mouse [3]; systemic / pathology microscopic / kidney / inflammation): 20 mg/kg/day | NOAEL (mouse [3]; systemic / pathology microscopic / kidney / inflammation + systemic / pathology gross / skin / lesion(s) (nos) + systemic / pathology …): 10 mg/kg/day | LEL (rat [4]; [14]): 50 mg/kg/day | LOAEL (rat [4]; [14]): > 50 mg/kg/day | NEL (rat [4]; [14]): 10 mg/kg/day | NOAEL (rat [4]; [14]): ≥ 50 mg/kg/day | LEL (rat [4]; [15]): 10 mg/kg/day | LOAEL (rat [4]; [15]): 10 mg/kg/day | NEL (rat [4]; [16]): 2 mg/kg/day | NOAEL (rat [4]; [16]): 2 mg/kg/day | LEL (rat [5]; [17]): 18.8 mg/kg/day | LOAEL (rat [5]; [17]): > 116 mg/kg/day | NEL (rat [5]; [17]): 7.7 mg/kg/day | NOAEL (rat [5]; [17]): ≥ 116 mg/kg/day | LEL (rat [5]; [18]): 1.82 mg/kg/day | LOAEL (rat [5]; [18]): 1.82 mg/kg/day | NEL (rat [5]; [18]): < 1.82 mg/kg/day | NOAEL (rat [5]; [18]): < 1.82 mg/kg/day | LOAEL (rat [6]; systemic / hematology / erythrocyte (rbc) count differential / erythrocyte (rbc)): 30 mg/kg/day | NOAEL (rat [6]; systemic / hematology / erythrocyte (rbc) count differential / erythrocyte (rbc) + systemic / clinical chemistry / albumin / albumin + …): 3 mg/kg/day | LEL (rat [6]; [19]): 0.3 mg/kg/day | NEL (rat [6]; [19]): < 0.3 mg/kg/day | LOAEL (rat [7]; [20]): 2.5 mg/kg/day | NOAEL (rat [7]; [20]): 1 mg/kg/day | LEL (rat [7]; [21]): 0.25 mg/kg/day | NEL (rat [7]; [21]): < 0.25 mg/kg/day | LEL (rabbit; [22]): 125 mg/kg/day | LOAEL (rabbit; [22]): 125 mg/kg/day | NEL (rabbit; [23]): 25 mg/kg/day | NOAEL (rabbit; [23]): 25 mg/kg/day | LEL (rabbit; [24]): 125 mg/kg/day | LOAEL (rabbit; [24]): 125 mg/kg/day | NEL (rabbit; [24]): 25 mg/kg/day | NOAEL (rabbit; [24]): 25 mg/kg/day

O=[N+]([O-])c1ccc(O)cc1C(F)(F)F [3-Trifluoromethyl-4-nitrophenol]
LOAEL (rat [8]; [25]): 146 mg/kg/day | NEL (rat [8]; [25]): 25 mg/kg/day | NOAEL (rat [8]; [25]): 81 mg/kg/day | LEL (rat [8]; [19]): 45 mg/kg/day | LOAEL (hamster; [26]): 24.9 mg/kg/day | NOAEL (hamster; [26]): < 24.9 mg/kg/day | LEL (hamster; [27]): 24.9 mg/kg/day | NEL (hamster; [27]): < 24.9 mg/kg/day
